Measurements from paper PMC6131205, “Controlling the regioselectivity and stereospecificity of FAD-dependent polyamine oxidases with the use of amine-attached guide molecules as conformational modulators” (Bioscience Reports, 2018).
Where two headings read alike, the source gives them in different places. One block for each molecule: values may come before it.

Experiments:
Fms1 [1] = molecular target: T1, Fms1 (Saccharomyces cerevisiae, UniProt P50264); experiment: Fms1 cleavage of 1 mM Spd supplemented with aldehydes (E1/E2 regioselectivity); format: biochemical, yeast; design: made in house; conditions: for effect on cleavage site balance of Spd: Spd plus aldehyde; for E1 cleavage (Put) kcat / E2 cleavage (DAP) kcat / Ratio of E1/E2: fixed 1 mM Spd, aldehyde 25-1000 μM, pH 9.0, 25°C;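 as to all read-outs here: recombinant yeast Fms1 reactions in Glycine-NaOH buffer, with products Put and DAP quantified by HPLC using post-column o-phthalaldehyde derivatization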
T1 sequence (P50264 whole entry): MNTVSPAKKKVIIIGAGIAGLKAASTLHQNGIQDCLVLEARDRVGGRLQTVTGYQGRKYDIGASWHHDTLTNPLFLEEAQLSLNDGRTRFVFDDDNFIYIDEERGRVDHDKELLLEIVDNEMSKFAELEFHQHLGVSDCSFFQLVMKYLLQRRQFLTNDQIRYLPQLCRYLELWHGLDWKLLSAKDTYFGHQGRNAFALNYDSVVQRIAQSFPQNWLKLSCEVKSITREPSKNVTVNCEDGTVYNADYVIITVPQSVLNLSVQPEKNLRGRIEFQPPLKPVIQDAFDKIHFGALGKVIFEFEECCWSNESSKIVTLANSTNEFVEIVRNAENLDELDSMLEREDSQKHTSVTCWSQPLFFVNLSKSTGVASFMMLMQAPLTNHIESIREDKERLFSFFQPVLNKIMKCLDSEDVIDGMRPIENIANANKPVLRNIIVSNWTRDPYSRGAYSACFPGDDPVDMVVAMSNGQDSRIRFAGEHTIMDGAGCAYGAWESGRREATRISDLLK
Experimental: HPLC with post-column o-phthalaldehyde-derivatization was used to determine the concentrations of the reaction products Put and 1,3-diaminopropane (DAP) or butane-1,3-diamine respectively as described in [30]. Fms1 activity was determined essentially as described for human recombinant APAO, but reactions were carried out in 100 mM Glycine-NaOH buffer at pH 9.0 in a water bath at +25°C [29, 30].

Fms1 [2] = molecular target: T1, Fms1; experiment: Substrate kinetics with recombinant Fms1 (HPLC of reaction products);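 also: recombinant polyamine oxidases incubated with substrate, product amines (putrescine, 1,3-diaminopropane or butane-1,3-diamine) quantified by HPLC after post-column o-phthalaldehyde derivatization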
human recombinant APAO [3] = molecular target: T2, human recombinant APAO (Homo sapiens, UniProt Q6QHF9); conditions: benzaldehyde Schiff base of MeSpd; cited from earlier work
T2 construct: made in house
T2 sequence (Q6QHF9 whole entry): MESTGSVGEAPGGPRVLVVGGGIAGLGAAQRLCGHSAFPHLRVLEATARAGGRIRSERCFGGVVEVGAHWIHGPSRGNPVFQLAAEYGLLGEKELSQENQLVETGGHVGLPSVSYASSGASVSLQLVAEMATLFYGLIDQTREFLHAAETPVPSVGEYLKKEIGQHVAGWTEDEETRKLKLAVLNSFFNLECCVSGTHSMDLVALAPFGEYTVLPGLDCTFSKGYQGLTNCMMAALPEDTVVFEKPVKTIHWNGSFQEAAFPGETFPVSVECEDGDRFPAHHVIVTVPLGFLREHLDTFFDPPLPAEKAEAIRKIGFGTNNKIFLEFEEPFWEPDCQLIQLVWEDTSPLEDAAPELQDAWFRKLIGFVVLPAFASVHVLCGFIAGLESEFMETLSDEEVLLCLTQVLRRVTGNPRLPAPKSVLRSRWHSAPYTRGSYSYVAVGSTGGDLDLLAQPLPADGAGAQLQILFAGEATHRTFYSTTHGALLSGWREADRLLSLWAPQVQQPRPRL

Fms1 [4] = molecular target: T1, Fms1; experiment: Fms1 cleavage of (R)- or (S)-MeSpd with or without aromatic aldehyde (E1/E2 velocities); format: biochemical, yeast; design: made in house
Experimental: Supplementary Table 3 The effects of increasing aromatic aldehyde concentration for the regioselectivity of Fms1 using (R)-MeSpd or (S)-MeSpd as a substrate.
The reactions were carried out in triplicate at pH 9.0 in 100 mM Glycine-NaOH at +25°C with the fixed 1 or 4 mM MeSpd supplemented with increasing concentration 50 or 500 µM of tested aldehyde. Recombinant Fms1 was 1.6 µg/reaction and the incubation time from 15 to 30 minutes.
Linearity of reaction was monitored by using T1/2 controls, i.e. samples that have been incubated for 7.5 to 15 min (half of the reaction time of an ordinary sample). E1 cleavage was monitored by HPLC by measuring Put formation and E2 cleavage by determining butane-1,3-diamine content.
Substrate (R)-MeSpd (S)-MeSpd […]

Fms1 [5] = molecular target: T1, Fms1; experiment: as above; format: biochemical, yeast; design: made in house; remark: listed apart in the source
human recombinant APAO [6] = molecular target: T2, human recombinant APAO; experiment: Substrate kinetics with human recombinant APAO (HPLC of reaction products); format: biochemical; conditions: for Km / Vmax / kcat: 100 mM Glycine-NaOH pH 9.5, 5 mM DTT
SMOX [7] = molecular target: T3, SMOX (Homo sapiens, UniProt Q9NWM0); experiment: Substrate properties with human recombinant SMOX; format: biochemical; design: made in house
T3 sequence (Q9NWM0 whole entry): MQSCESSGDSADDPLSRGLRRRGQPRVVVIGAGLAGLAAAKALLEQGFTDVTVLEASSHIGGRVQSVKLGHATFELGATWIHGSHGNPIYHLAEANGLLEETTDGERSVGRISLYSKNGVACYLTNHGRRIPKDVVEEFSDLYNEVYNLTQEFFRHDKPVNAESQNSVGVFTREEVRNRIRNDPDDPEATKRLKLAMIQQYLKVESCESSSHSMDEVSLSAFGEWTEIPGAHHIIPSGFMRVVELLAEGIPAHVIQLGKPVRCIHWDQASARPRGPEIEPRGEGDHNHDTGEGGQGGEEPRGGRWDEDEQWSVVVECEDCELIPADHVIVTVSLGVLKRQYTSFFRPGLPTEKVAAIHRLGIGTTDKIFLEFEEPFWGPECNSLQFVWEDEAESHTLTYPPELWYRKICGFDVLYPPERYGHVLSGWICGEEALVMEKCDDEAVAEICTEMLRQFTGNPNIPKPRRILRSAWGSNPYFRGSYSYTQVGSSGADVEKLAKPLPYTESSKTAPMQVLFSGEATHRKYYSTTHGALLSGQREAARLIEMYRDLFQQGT
Text: Thus, developing specific inhibitors of SMOX is of crucial importance. In addition, the use of specific substrates for SMOX and APAO would enable distinguishing between APAO and SMOX enzyme activities in vivo.

SMOX [8] = molecular target: T3, SMOX; experiment: Inhibition of SMOX (Ki, peroxidase-coupled fluorescence, Spm as substrate)
Experimental: Reaction mixtures contained 40 units/ml horseradish peroxidase (Roche), 1 mM homovanillic acid in 100 mM Glycine-NaOH at pH 9.0 supplemented with 40 ng of SMOX. […] Dilutions of fresh H2O2 were used as standard.

Fms1 [9] = molecular target: T1, Fms1; design: made in house; method as in PMID 21067138; conditions: cited from earlier work
[10] = aldehyde A13 50 µM, first of two lines (1 or 4 mM MeSpd, not stated which)
[11] = aldehyde A12 50 µM, first of two lines (1 or 4 mM MeSpd, not stated which)
[12] = aldehyde A12 50 µM, second of two lines (1 or 4 mM MeSpd, not stated which)
[13] = aldehyde A12 500 µM, first of two lines (1 or 4 mM MeSpd, not stated which)
[14] = aldehyde A12 500 µM, second of two lines (1 or 4 mM MeSpd, not stated which)
[15] = aldehyde A13 50 µM, second of two lines (1 or 4 mM MeSpd, not stated which)
[16] = aldehyde A13 500 µM, first of two lines (1 or 4 mM MeSpd, not stated which)
[17] = aldehyde A13 500 µM, second of two lines (1 or 4 mM MeSpd, not stated which)
[18] = Ki (best-fit value, noncompetitive inhibition), GraphPad Prism global fit, supplement
[19] = Ki, non-competitive fit, 25, 50 or 100 µM Spm, pH 9.0, 37°C
[20] = 1 mM Spm, Glycine-NaOH buffer pH 9.0

E1 cleavage (Put) kcat (Fms1 [1]): 0.54 ± 0.01 s⁻¹
E2 cleavage (DAP) kcat (Fms1 [1]): 0.08 ± 0.00 s⁻¹
Ratio of E1/E2 (Fms1 [1]): 5.2
Compound: O=Cc1ccccc1O [C00002]

E1 cleavage (Put) kcat (Fms1 [1]): 0.31 ± 0.01 s⁻¹
E2 cleavage (DAP) kcat (Fms1 [1]): 0.47 ± 0.01 s⁻¹
Ratio of E1/E2 (Fms1 [1]): 0.22
Compound: O=Cc1cccc(O)c1 [C00003]

E1 cleavage (Put) kcat (Fms1 [1]): 0.37 ± 0.00 s⁻¹
E2 cleavage (DAP) kcat (Fms1 [1]): 0.05 ± 0.00 s⁻¹
Ratio of E1/E2 (Fms1 [1]): 6.4
Compound: O=Cc1ccc([N+](=O)[O-])cc1 [C00012]

E1 cleavage (Put) kcat (Fms1 [1]): 7.4 ± 0.2 s⁻¹
E2 cleavage (DAP) kcat (Fms1 [1]): 0.19 ± 0.01 s⁻¹
Ratio of E1/E2 (Fms1 [1]): 12.9
Compound: O=Cc1ccncc1 [C00005]

The remaining lines, values behind:

Compound: O=Cc1ccccn1 [A18]
effect on cleavage site balance of Spd (Fms1 [1]): shifted the balance towards E2 cleavage site

Compound: C[C@@H](N)CCNCCCCN [(R)-MeSpd, 1,8-diamino-5-azanonane]
Km (Fms1 [2]; Fms1, text summary of Supplementary Table S2): > 500 µM
specificity constant ratio (R)/(S) of benzaldehyde Schiff base derivatives (human recombinant APAO [3]): eight
E2 cleavage velocity (Fms1 [4]; Without aldehyde, 1 mM MeSpd): 4.3 ± 0.9 nmol/mg/min
E1 cleavage velocity (Fms1 [4]; Without aldehyde, 4 mM MeSpd): 12.5 ± 0.0 nmol/mg/min
E2 cleavage velocity (Fms1 [4]; Without aldehyde, 4 mM MeSpd): 5.6 ± 0.4 nmol/mg/min
E1 cleavage velocity (Fms1 [4]; [10]): 19.1 ± 1.0 nmol/mg/min
E1 cleavage velocity (Fms1 [5]; Without aldehyde, 1 mM MeSpd): 9.5 ± 0.1 nmol/mg/min
E1 cleavage velocity (Fms1 [5]; [11]): 10.5 ± 1.1 nmol/mg/min
E2 cleavage velocity (Fms1 [5]; [11]): 33.7 ± 4.8 nmol/mg/min
E1 cleavage velocity (Fms1 [5]; [12]): 14.0 ± 0.9 nmol/mg/min
E2 cleavage velocity (Fms1 [5]; [12]): 31.8 ± 4.3 nmol/mg/min
E1 cleavage velocity (Fms1 [5]; [13]): 12.7 ± 1.6 nmol/mg/min
E2 cleavage velocity (Fms1 [5]; [13]): 186 ± 24 nmol/mg/min
E1 cleavage velocity (Fms1 [5]; [14]): 14.4 ± 0.8 nmol/mg/min
E2 cleavage velocity (Fms1 [5]; [14]): 216 ± 31 nmol/mg/min
E2 cleavage velocity (Fms1 [5]; [10]): 10.3 ± 3.1 nmol/mg/min
E1 cleavage velocity (Fms1 [5]; [15]): 19.1 ± 0.4 nmol/mg/min
E2 cleavage velocity (Fms1 [5]; [15]): 9.6 ± 2.2 nmol/mg/min
E1 cleavage velocity (Fms1 [5]; [16]): 72.8 ± 2.3 nmol/mg/min
E2 cleavage velocity (Fms1 [5]; [16]): 41.5 ± 3.4 nmol/mg/min
E1 cleavage velocity (Fms1 [5]; [17]): 63.1 ± 1.0 nmol/mg/min
E2 cleavage velocity (Fms1 [5]; [17]): 39.5 ± 2.1 nmol/mg/min

Compound: C[C@@H](CCNCCCCN)NCc1ccccc1 [Bn-(S)-MeSpd]
Km (human recombinant APAO [6]): 1.6 ± 0.6 µM
Vmax (human recombinant APAO [6]): 0.03 ± 0.00 µmol/min/mg
kcat (human recombinant APAO [6]): 0.03 ± 0.00 s⁻¹
substrate of SMOX (SMOX [7]): not being substrates of SMOX
Ki (SMOX [8]; [18]): 155 µM
Ki (SMOX [8]; [19]): 155 ± 13 µM

Compound: NCCCNCCCCNCCCN [Spm, spermine, reference compound]
reaction velocity (Fms1 [2]; 1 mM Spm, 100 mM Tris/HCl or 170 mM Bis/Tris buffers pH 9.0): 36.1 ± 0.24 µmol/mg/min
pH of highest reaction velocity (Fms1 [2]; 1 mM Spm, 170 mM Bis/Tris): 9.25
reaction velocity in comparison with rate at the optimum pH (Fms1 [2]; 1 mM Spm, 170 mM Bis/Tris, pH 8.0): ~ 15%
reaction velocity in comparison with rate at the optimum pH (Fms1 [2]; 1 mM Spm, 170 mM Bis/Tris, pH 8.5): 60%
activity of recombinant Fms1 (Fms1 [2]; [20]): 30.9 ± 0.45 µmol/mg/min
kcat (Fms1 [2]; [20]): 30.3 ± 0.44 s⁻¹
kcat (Fms1 [9]): 39.0 ± 1.5 s⁻¹

Compound: COc1ccc(C=O)cc1 [C00009]
E1 cleavage (Put) kcat (Fms1 [1]): 0.13 ± 0.00 s⁻¹
E2 cleavage (DAP) kcat (Fms1 [1]): 0.22 ± 0.00 s⁻¹

Compound: O=Cc1cccc(O)c1 [A6]
effect on cleavage site balance of Spd (Fms1 [1]): shifted the balance towards E2 cleavage site

Compound: C[C@H](CCNCCCCN)NC(=O)c1ccncc1 [P4-(R)-MeSpd]
Km (human recombinant APAO [6]): 3.6 ± 0.6 µM
Vmax (human recombinant APAO [6]): 5.59 ± 0.60 µmol/min/mg
kcat (human recombinant APAO [6]): 5.2 ± 0.6 s⁻¹
Ki (SMOX [8]; [18]): 1280 µM
Ki (SMOX [8]; [19]): 1280 ± 111 µM

Compound: CC(=O)NCCCNCCCCN [N^1-AcSpd, reference compound]
kcat (Fms1 [2]; Supplementary Table 1, pH 9.0, 100 mM Glycine-NaOH, 25°C, Put formation): 65 ± 2 s⁻¹

Compound: O=Cc1ccccc1[N+](=O)[O-] [A7]
increase of the ratio of the cleavage pathways (E1/E2) (Fms1 [1]; Spd plus aldehyde vs Spd alone): 5 fold

Compound: C[C@@H](CCNCCCCN)NC(=O)c1ccccc1 [Bz-(S)-MeSpd]
Km (human recombinant APAO [6]): 0.2 ± 0.2 µM
Vmax (human recombinant APAO [6]): 0.03 ± 0.00 µmol/min/mg
kcat (human recombinant APAO [6]): 0.03 ± 0.00 s⁻¹
Ki (SMOX [8]; [18]): 846 µM
Ki (SMOX [8]; [19]): 846 ± 82 µM

Compound: C[C@H](CCNCCCCN)NCc1ccccc1 [Bn-(R)-MeSpd]
Km (human recombinant APAO [6]): 2 ± 0.1 µM
Vmax (human recombinant APAO [6]): 0.15 ± 0.00 µmol/min/mg
kcat (human recombinant APAO [6]): 0.14 ± 0.00 s⁻¹
specificity constant ratio (R)-enantiomer/(S)-enantiomer (human recombinant APAO [6]; APAO, ratio of kcat/Km): four
substrate of SMOX (SMOX [7]): not being substrates of SMOX
Ki (SMOX [8]; [18]): 441 µM
Ki (SMOX [8]; [19]): 441 ± 32 µM
